Reference: patent publication US10328077B2 (CELGENE CORPORATION, priority 2016, dated 2019)
Read-outs that look alike come from different tables or passages of the source.

Experiments:
[1] = biological target: T1, CYP3A4 (Homo sapiens (Human), UniProt P08684); assay: CYP inhibition in pooled human liver microsomes, CYP3A4; assay type: in vitro ADME
[2] = test system: NCI-H1417 SCLC xenograft; assay: NCI-H1417 SCLC xenograft efficacy, athymic nude mice; assay type: in vivo; settings: for % TGI: Day 65; for mean body weight gain: end of study
[3] = test system: LU2514 SCLC patient-derived xenograft; assay: LU2514 HuPrime SCLC PDX model; assay type: in vivo, mice
Procedure: Tumor growth inhibition analysis was performed on Day 28 post treatment, the last day of dosing.

[4] = biological target: T1, CYP3A4; assay: CYP reaction phenotyping with recombinant human CYP enzymes; assay type: in vitro ADME
Text: The role of non-CYP enzymes in the metabolism of Compound A is yet to be ascertained.

[5] = test system: LNCaP cells; assay: LNCaP cell proliferation with DHT and irradiation; assay type: cell-based, human; settings: 10 nM DHT + 100 nM Compound A + 2Gy irradiation vs DHT + irradiation or DHT + Compound A, 220 hours
Procedure: LNCaP cells are androgen-sensitive human prostate adenocarcinoma cells. […] The proliferation of the LNCap cells was monitored for 220 hours.

[6] = biological target: muscarinic M1 receptor (Homo sapiens (Human), UniProt P11229); assay: CEREP in vitro pharmacology panel, muscarinic M1 receptor
muscarinic M1 receptor, sequence (P11229 whole entry): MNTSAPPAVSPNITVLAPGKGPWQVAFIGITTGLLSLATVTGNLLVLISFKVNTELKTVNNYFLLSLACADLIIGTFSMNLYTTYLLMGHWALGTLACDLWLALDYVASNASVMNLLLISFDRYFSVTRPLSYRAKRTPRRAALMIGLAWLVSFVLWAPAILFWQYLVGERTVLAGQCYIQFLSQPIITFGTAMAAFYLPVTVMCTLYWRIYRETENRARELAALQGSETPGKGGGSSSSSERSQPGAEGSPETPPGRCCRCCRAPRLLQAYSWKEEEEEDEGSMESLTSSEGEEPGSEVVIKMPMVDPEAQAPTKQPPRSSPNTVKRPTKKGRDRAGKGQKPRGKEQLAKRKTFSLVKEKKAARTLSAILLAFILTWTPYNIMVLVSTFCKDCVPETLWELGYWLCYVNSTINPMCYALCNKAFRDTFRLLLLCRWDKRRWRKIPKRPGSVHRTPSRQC

[7] = test system: MS-1 hMCC xenograft; assay type: in vivo; settings: 5 mg/kg PO 5 on/2 off
[8] = test system: LU2527 lung NEC patient-derived xenograft; assay type: in vivo
[9] = biological target: CYP2D6 (Homo sapiens (Human), UniProt P10635); assay: CYP inhibition in pooled human liver microsomes, CYP2D6; assay type: in vitro ADME; settings: up to 50 μM
CYP2D6, sequence (P10635 whole entry): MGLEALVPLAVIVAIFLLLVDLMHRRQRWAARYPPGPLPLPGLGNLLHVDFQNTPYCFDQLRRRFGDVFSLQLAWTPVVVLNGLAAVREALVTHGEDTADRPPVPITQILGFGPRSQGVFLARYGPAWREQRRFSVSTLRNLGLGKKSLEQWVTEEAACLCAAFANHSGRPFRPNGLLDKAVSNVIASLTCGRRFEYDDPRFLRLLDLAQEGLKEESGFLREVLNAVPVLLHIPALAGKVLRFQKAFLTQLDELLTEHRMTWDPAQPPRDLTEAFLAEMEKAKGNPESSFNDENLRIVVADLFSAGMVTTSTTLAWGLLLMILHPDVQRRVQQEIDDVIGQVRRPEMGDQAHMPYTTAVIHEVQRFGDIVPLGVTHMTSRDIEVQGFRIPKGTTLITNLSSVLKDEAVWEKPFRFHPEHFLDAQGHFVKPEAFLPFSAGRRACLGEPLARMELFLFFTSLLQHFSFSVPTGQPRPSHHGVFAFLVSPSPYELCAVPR

[10] = Exploratory toxicity study in dogs; assay type: in vivo, Beagle dogs
[11] = Beagle, dog, in vivo, po
[12] = biological target: hERG potassium channel (Homo sapiens (Human), UniProt Q12809)
hERG potassium channel, sequence (Q12809 whole entry): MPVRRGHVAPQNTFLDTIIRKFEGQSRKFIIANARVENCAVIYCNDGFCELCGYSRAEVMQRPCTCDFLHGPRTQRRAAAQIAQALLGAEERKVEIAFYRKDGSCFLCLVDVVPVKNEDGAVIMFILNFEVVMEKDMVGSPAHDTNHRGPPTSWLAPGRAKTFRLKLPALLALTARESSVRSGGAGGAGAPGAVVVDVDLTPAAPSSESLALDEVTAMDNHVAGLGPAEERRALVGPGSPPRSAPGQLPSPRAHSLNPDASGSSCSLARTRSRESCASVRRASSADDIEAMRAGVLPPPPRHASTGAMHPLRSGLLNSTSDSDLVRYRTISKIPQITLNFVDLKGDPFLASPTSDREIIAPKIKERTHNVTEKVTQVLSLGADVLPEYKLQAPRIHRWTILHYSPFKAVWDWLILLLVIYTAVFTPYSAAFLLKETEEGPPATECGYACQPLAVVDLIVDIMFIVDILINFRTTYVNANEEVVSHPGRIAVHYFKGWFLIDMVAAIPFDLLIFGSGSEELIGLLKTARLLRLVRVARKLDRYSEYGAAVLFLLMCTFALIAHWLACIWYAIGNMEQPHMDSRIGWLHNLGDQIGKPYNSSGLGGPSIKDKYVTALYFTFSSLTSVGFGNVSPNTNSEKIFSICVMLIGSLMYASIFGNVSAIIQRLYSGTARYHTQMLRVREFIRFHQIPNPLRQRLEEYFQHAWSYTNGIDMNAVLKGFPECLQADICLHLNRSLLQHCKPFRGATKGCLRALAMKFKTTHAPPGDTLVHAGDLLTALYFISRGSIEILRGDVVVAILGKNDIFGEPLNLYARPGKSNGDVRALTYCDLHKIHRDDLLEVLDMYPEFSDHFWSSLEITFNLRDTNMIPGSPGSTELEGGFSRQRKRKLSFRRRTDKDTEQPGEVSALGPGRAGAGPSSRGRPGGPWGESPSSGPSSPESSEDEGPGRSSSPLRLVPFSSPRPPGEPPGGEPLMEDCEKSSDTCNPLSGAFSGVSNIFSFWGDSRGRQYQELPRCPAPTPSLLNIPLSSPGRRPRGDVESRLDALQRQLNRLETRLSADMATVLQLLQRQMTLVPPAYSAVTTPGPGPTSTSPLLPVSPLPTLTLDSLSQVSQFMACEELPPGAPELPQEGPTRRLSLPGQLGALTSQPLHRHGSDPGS

[13] = Predicted human pharmacokinetics (allometric scaling)
[14] = test system: LU1480 SCLC patient-derived xenograft; assay: LU1480 HuPrime SCLC PDX model; assay type: in vivo, mice
[15] = Metabolism in cryopreserved primary hepatocytes; assay type: in vitro ADME; settings: male mouse, rat, dog, monkey; mixed gender human
[16] = in vivo; settings: Crl:CD1(ICR), mouse, plasma, po, 15 mg/kg
[17] = test system: Salmonella typhimurium TA98 and TA100 strains; assay: Bacterial reverse mutation assay; settings: up to 500 μg/mL, presence and absence of S9
[18] = Pharmacokinetics after IV and oral dose, monkeys; assay type: in vivo; settings: cynomolgus monkey, plasma, male; for half-life: read-out: t1/2, z (converted)
[19] = Hemodynamic and ECG parameters in anesthetized guinea pigs; assay type: in vivo, Dunkin Hartley guinea pigs; settings: for concentration at 10 min: male, Dunkin Hartley, plasma, read-out: mean plasma concentration at end of infusion
Text: Animals were monitored throughout the experiment.

[20] = test system: LXFS 2156 SCLC patient-derived xenograft; assay: LXFS 2156 SCLC PDX model; assay type: in vivo, mice; settings: 5 mg base/kg oral QD×23
[21] = Exploratory toxicity study in mice; assay type: in vivo, CD-1 mice; settings: for reduction in neutrophil counts: 60 mg/kg/dose QOD
Text: Additional animals were included for TK evaluation.

T1 sequence (P08684 whole entry): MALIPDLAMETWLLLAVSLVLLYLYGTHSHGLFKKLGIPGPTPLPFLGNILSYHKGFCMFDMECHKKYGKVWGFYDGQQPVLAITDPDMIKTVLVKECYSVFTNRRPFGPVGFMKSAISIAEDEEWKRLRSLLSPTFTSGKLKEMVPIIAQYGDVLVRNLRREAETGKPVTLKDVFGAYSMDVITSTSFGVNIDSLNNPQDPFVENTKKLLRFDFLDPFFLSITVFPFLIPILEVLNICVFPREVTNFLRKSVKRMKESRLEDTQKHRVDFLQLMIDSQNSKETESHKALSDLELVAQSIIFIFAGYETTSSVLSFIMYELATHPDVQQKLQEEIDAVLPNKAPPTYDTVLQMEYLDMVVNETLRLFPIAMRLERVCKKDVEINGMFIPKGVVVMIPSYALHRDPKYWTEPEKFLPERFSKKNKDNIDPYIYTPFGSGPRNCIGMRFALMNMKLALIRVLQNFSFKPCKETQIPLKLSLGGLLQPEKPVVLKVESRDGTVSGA

**Q.** Which results are given for `COc1ccc(-c2c(-c3ccc(C#N)c(F)c3)nc(N3CCC(N)CC3)n(C)c2=O)cc1F` [Compound A, 4-[2-(4-amino-piperidin-1-yl)-5-(3-fluoro-4-methoxy-phenyl)-1-methyl-6-oxo-1,6-dihydro-pyrimidin-4-yl]-2-fluoro-benzonitrile]?
**A.** IC50 [1]: > 50000 nM; Median Tumor Volume Day 65 ([2]; 2.5 mg base/kg PO QDx65): 39.3 mm^3; Median Tumor Volume Diff. (Day 65 - Day 0) ([2]; 2.5 mg base/kg PO QDx65): −69.9 mm^3; % TGI ([2]; 2.5 mg base/kg PO QDx65): 159%; TGI ([2]; 2.5 mg base/kg oral QD×65, Day 65): 159%; mean body weight gain ([2]; 2.5 mg base/kg): 1%; Median Tumor Volume Day 65 ([2]; 5 mg base/kg PO QDx65): 15.9 mm^3; Median Tumor Volume Diff. (Day 65 - Day 0) ([2]; 5 mg base/kg PO QDx65): −92.3 mm^3; % TGI ([2]; 5 mg base/kg PO QDx65): 178%; TGI ([2]; 5 mg base/kg oral QD×65, Day 65): 178%; mean body weight gain ([2]; 5 mg base/kg): 7.5%; tumors regressed in net volume ([2]; 2.5 and 5 mg base/kg groups together): 14 out of 15; Median Tumor Volume Day 28 ([3]; 5 mg base/kg PO QDx28): 1244.8 mm^3; Median Tumor Volume Diff. (Day 28 - Day 1) ([3]; 5 mg base/kg PO QDx28): 1071.6 mm^3; Median Tumor Volume Day 28 ([3]; 10 mg base/kg PO QDx28): 906.0 mm^3; Median Tumor Volume Diff. (Day 28 - Day 1) ([3]; 10 mg base/kg PO QDx28): 732.3 mm^3; mean body weight loss ([3]; both LU2514 studies): < 10%; role of CYP3A4 in metabolism [4]: predominantly responsible for the oxidative metabolism; LNCaP cell proliferation [5]: significantly inhibits LNCaP cell proliferation; Ki [6]: 1600 nM; inhibition at 10 µM ([6]; read-out: inhibition of ligand binding): 76%; Median Tumor Volume Day 36 [7]: 129 mm^3; Median Tumor Volume Diff (Day 36 - Day -3) [7]: 80 mm^3; Median Tumor Volume Day 46 ([8]; 5 mg/kg PO QD x 46): 329.7 mm^3; Median Tumor Volume Diff (Day 46 - Day 0) ([8]; 5 mg/kg PO QD x 46): 177.9 mm^3; % TGI ([8]; 5 mg/kg PO QD x 46, Day 46): 84%; TGI ([8]; 5 mg/kg oral QD for 46 days): 84%; tolerability ([8]; 1.5 and 5 mg/kg oral QD): acceptably tolerated; direct inhibition of CYP2D6 [9]: little to no direct inhibitory effect; platelet counts ([10]; 0.25 mg/kg/dose): no reduction in platelet counts; Compound A-related effects ([10]; 0.25 mg/kg/dose QOD): no Compound A-related effects; platelet counts ([10]; 0.5 mg/kg/dose (both schedules) and 1 mg/kg/dose, most dogs): below 25,000 /μL; body weight loss ([10]; one female, 0.5 mg/kg/day 5 days on/2 days off, sacrificed moribund Day 12): 10.8%; AUC0-96 ([11]; female): 127 ng·h/mL; Cmax ([11]; female): 5.77 ng/mL; AUC0-96 ([11]; female, 0.25 mg/kg): 272 ng·h/mL; Cmax ([11]; female, 0.25 mg/kg): 11.5 ng/mL; AUC0-96 ([11]; female, 0.5 mg/kg): 618 ng·h/mL; AUC0-96 ([11]; male): 114 ng·h/mL; Cmax ([11]; male): 5.81 ng/mL; AUC0-96 ([11]; male, 0.25 mg/kg): 302 ng·h/mL; Cmax ([11]; male, 0.25 mg/kg): 10.5 ng/mL; AUC0-96 ([11]; male, 0.5 mg/kg): 653 ng·h/mL; Hill coefficient [12]: 1.2; predicted steady state systemic exposure (AUCt) ([13]; 1.25 mg oral QW, 60-kg human, 80% oral bioavailability assumed): 29 ng·h/mL; predicted clearance ([13]; allometric scaling): 9.4 mL/min/kg; predicted volume of distribution ([13]; allometric scaling): 17.6 L/kg; Median Tumor Volume Day 21 ([14]; 5 mg base/kg PO QDx21): 490.1 mm^3; Median Tumor Volume Diff. (Day 21 - Day 1) ([14]; 5 mg base/kg PO QDx21): 400.6 mm^3; Median Tumor Volume Day 21 ([14]; 10 mg base/kg PO QDx21): 321.4 mm^3; Median Tumor Volume Diff. (Day 21 - Day 1) ([14]; 10 mg base/kg PO QDx21): 234.3 mm^3; % TGI ([14]; 10 mg base/kg PO QDx21, Day 21): 72%; TGI ([14]; 10 mg base/kg oral for 21 days): 72%; metabolic stability in hepatocytes [15]: greater in rat and dog followed by human and monkeys while being least stable in mouse hepatocytes; AUC(0-t) ([16]; female): 9680 ng·h/mL; Cmax ([16]; female): 850 ng/mL; AUC(0-t) ([16]; male): 7960 ng·h/mL; Cmax ([16]; male): 628 ng/mL; mutagenicity [17]: negative for mutagenicity; AUC(0-inf) ([18]; single IV dose 1 mg): 983 ng·h/mL; AUC(0-t) ([18]; single IV dose 1 mg): 912 ng·h/mL; clearance ([18]; single IV dose 1 mg): 18 mL/min/kg; Vd ([18]; single IV dose 1 mg, mean (SD), read-out: Vss): 17.1 L/kg; half-life ([18]; single IV dose 1 mg): 12 h; AUC(0-t) ([18]; single oral dose 5 mg base/kg): 3620 ng·h/mL; Cmax ([18]; single oral dose 5 mg base/kg): 187 ng/mL; Tmax ([18]; single oral dose 5 mg base/kg): 6 h; bioavailability ([18]; single oral dose 5 mg base/kg): 82%; half-life ([18]; single oral dose 5 mg base/kg): 12.9 h; maximum increase of QTcB interval vs vehicle ([19]; 10 mg base/kg IV): approximately 9%; maximum increase of QTcB interval vs vehicle ([19]; 15 mg base/kg IV): ~13%; maximum increase of QTcB interval vs vehicle ([19]; 20 mg base/kg IV): ~16%; maximum suppression of HR vs vehicle ([19]; 20 mg base/kg IV, 9 minutes into infusion): 19%; NOAEL for hemodynamic and ECG endpoints ([19]; IV): 10 mg base/kg; HR decrease at end of monitoring period ([19]; after 20 mg base/kg IV): 18%; QTcB interval increase at end of monitoring period ([19]; guinea pig, in vivo): 10%; concentration at 10 min ([19]; guinea pig, 5 mg base/kg IV): 1170 ng/mL; concentration at 10 min ([19]; guinea pig, 10 mg base/kg IV): 2360 ng/mL; concentration at 10 min ([19]; guinea pig, 15 mg base/kg IV): 4270 ng/mL; concentration at 10 min ([19]; guinea pig, 20 mg base/kg IV): 6710 ng/mL; TGI [20]: −7%; increase in platelets on Day 8 ([21]; 10 mg/kg/day 5 days on/2 days off, vs end of first dosing period): > 2 fold; reduction in neutrophil counts ([21]; females): 66%; reduction in neutrophil counts ([21]; males): 83%; increased spleen weights ([21]; 30 or 60 mg/kg/dose 5 days on/2 days off): up to 2 fold; greatest reduction in neutrophil counts ([21]; 5 days on/2 days off schedule, vs concurrent controls and pre-study values): approximately 90%; circulating platelets ([21]; all dose levels, end of study): reduced
